Type in all cases: cell-based, human
Test [1] deals with A549 cell-derived tumorspheres. Briefly: Tumorsphere formation. As to conditions: A549 tumorspheres. How it is done:
Human lung cancer cells, A549, were cultured under the same culture conditions as those for the breast cancer cells of Example 2-1. To establish primary tumorspheres, single cell-suspended A549 cells were inoculated into ultra-low attachment 6-well plates containing 2 ml of Cancer Stem Premium medium (ProMab Biotechnologies Inc, Richmond, Calif., USA) at a density of 5×10^4 cells/well. The cells were incubated in a 5% CO2 incubator at 37° C. for 10 days.
Lung cancer tumorspheres were counted in the same manner as in Example 3-1, and for the analysis of tumorsphere formation, tumorsphere formation efficiency (TFE, %) was determined by the following equation: TFE (%)=number of tumorspheres per well/total number of plated cells per well×100.

For test [2], the system named is MCF-7 cell-derived mammospheres. Nature of the test: Mammosphere formation. As to conditions: MCF-7 mammospheres, 80 μM. How it is done:
(§1) Human breast cancer cells, MCF-7, were obtained from American Type Culture Collection (ATCC; Manassas, Va., USA). MCF-7 cells and MDA-MB-231 cells were cultured in Dulbecco's Modified Essential Medium (DMEM; Hyclone, Logan, Utah, USA) containing 10% fetal bovine serum (FBS; Hyclone), 100 U/ml of penicillin, and 100 μg/ml of streptomycin (Hyclone). The MCF-7 cells were maintained in a humidified incubator containing 5% CO2 at 37° C. The cells were plated in 10 cm culture dishes at a density of 1×10^6 cells. To establish primary mammospheres, single cell-suspended MCF-7 cells were inoculated into ultra-low attachment 6-well plates containing 2 ml of complete MammoCult™ medium (StemCell Technologies, Vancouver, BC, Canada) at a density of 3.5 to 4×10^4 cells/well. The complete MammoCult™ medium was supplemented with 4 μg/ml of heparin, 0.48 μg/ml of hydrocortisone, 100 U/ml of penicillin, and 100 μg/ml of streptomycin. The cells were incubated in a 5% CO2 incubator at 37° C. for 7 days.
(§2) On day 10 of culture, cell culture plates were placed on a scanner (Epson Perfection V700 PHOTO, Epson Korea, Co, Seoul, Korea) to obtain 8-bit gray scale images of mammospheres. The images were acquired using a NICE software program downloaded from ftp://ftp.nist.gov/pub/physics/mlclarke/NICE at a low resolution of 300 dpi. For counting, a desired number of rows and columns (e.g., 2×3 for a 6-well plate) were selected to generate ROIs and after selecting the elliptical setting of the NICE program, the individual ROIs were defined by adjusting the movement and size of the provided ROI shapes. The background signals of the images were negated using a threshold algorithm, and the selected images were automatically counted. To analyze the formation of mammospheres, mammosphere formation efficiency (MFE, %) was determined by the following equation: MFE (%)=the number of mammospheres per well/a total number of plated cells per well×100.

The test system of test [3] is MDA-MB-231 cell-derived mammospheres. Nature of the test: Mammosphere formation. As to conditions: MDA-MB-231 mammospheres, 80 μM. How it is done:
as §1, §2

Regarding isobutyryl ciclesonide, the “lung cancer stem cell inhibitory activity” value in test [1] (5 μM and 10 μM) is recorded as “exhibited a lung cancer stem cell inhibitory activity”.
As to `C[C@]12C=CC(=O)C=C1CC[C@@H]1[C@@H]2C(=O)C[C@@]2(C)[C@H]1CC[C@]2(O)C(=O)CO` [prednisone], the “growth of breast cancer stem cells” value in test [2] and in test [3] was “unable to inhibit” each time. Moreover, the “lung cancer stem cell inhibitory activity” value in test [1] (80 μM) is “did not exhibit a lung cancer stem cell inhibitory activity”.

For the origin of these results see patent publication US11191746B2, “Composition for inhibiting a growth of cancer stem cells comprising ciclesonide” (JEJU NATIONAL UNIVERSITY INDUSTRY-ACADEMIC COOPERATION …, priority 2016, dated 2021).
